# In ChEMBL document CHEMBL1143809, “New bis-N9-(methylphenylmethyl)purine derivatives: synthesis and antitumor activity” (2007):
# Assays:
# Type in all cases: functional
# [1] = system: NCI/ADR-RES; assay: Growth inhibition of human NCI/ADR-RES cells after 48 hrs by SRB protein assay
# [2] = system: SNB-75; assay: Growth inhibition of human SNB75 cells after 48 hrs by SRB protein assay; details: SNB-75, 48 h; for CC50: read-out: LC50 (the source's name)
# [3] = system: RXF 393; assay: Growth inhibition of human RXF393 cells after 48 hrs by SRB protein assay; details: RXF 393, 48 h; for CC50: read-out: LC50 (the source's name)
# [4] = system: OVCAR-5; assay: Growth inhibition of human OVCAR5 cells after 48 hrs by SRB protein assay; details: OVCAR-5, 48 h; for CC50: read-out: LC50 (the source's name)
# [5] = system: HOP-92; assay: Growth inhibition of human HOP92 cells after 48 hrs by SRB protein assay; details: HOP-92, 48 h
# [6] = system: IGROV-1; assay: Growth inhibition of human IGROV1 cells after 48 hrs by SRB protein assay; details: IGROV-1, 48 h
# [7] = system: HCC 2998; assay: Growth inhibition of human HCC2998 cells after 48 hrs by SRB protein assay; details: HCC 2998, 48 h
# [8] = system: SF-295; assay: Growth inhibition of human SF295 cells after 48 hrs by SRB protein assay; details: SF-295, 48 h
# [9] = system: SW-620; assay: Growth inhibition of human SW620 cells after 48 hrs by SRB protein assay; details: SW-620, 48 h; for CC50: read-out: LC50 (the source's name)
# [10] = system: CCRF-CEM; assay: Growth inhibition of human CCRF-CEM cells after 48 hrs by SRB protein assay; details: for CC50: read-out: LC50 (the source's name)
# [11] = system: MDA-MB-435; assay: Growth inhibition of human MDA-MB-435 cells after 48 hrs by SRB protein assay; details: MDA-MB-435, 48 h
# [12] = system: RPMI-8226; assay: Growth inhibition of human RPMI8226 cells after 48 hrs by SRB protein assay; details: RPMI-8226, 48 h
# [13] = system: SK-MEL-2; assay: Growth inhibition of human SK-MEL-2 cells after 48 hrs by SRB protein assay; details: SK-MEL-2, 48 h; for CC50: read-out: LC50 (the source's name)
# [14] = system: A498; assay: Growth inhibition of human A498 cells after 48 hrs by SRB protein assay; details: A498, 48 h; for CC50: read-out: LC50 (the source's name)
# [15] = system: OVCAR-3; assay: Growth inhibition of human OVCAR-3 cells after 48 hrs by SRB protein assay; details: OVCAR-3, 48 h
# [16] = system: OVCAR-4; assay: Growth inhibition of human OVCAR4 cells after 48 hrs by SRB protein assay; details: OVCAR-4, 48 h
# [17] = system: Hs-578T; assay: Growth inhibition of human HS578T cells after 48 hrs by SRB protein assay
# [18] = system: SK-OV-3; assay: Growth inhibition of human SK-OV-3 cells after 48 hrs by SRB protein assay; details: SK-OV-3, 48 h
# [19] = system: SF-268; assay: Growth inhibition of human SF268 cells after 48 hrs by SRB protein assay; details: SF-268, 48 h
# [20] = system: NCI-H460; assay: Anticancer activity against human NCL-H460 cells assessed as growth at 100 uM after 48 hrs by SRB protein assay relative to control; details: NCI-H460, 48 h, read-out: Activity
# [21] = system: SK-MEL-28; assay: Growth inhibition of human SK-MEL-28 cells after 48 hrs by SRB protein assay; details: SK-MEL-28, 48 h
# [22] = system: HCT-116; assay: Growth inhibition of human HCT116 cells after 48 hrs by SRB protein assay; details: HCT-116, 48 h; for CC50: read-out: LC50 (the source's name)
# [23] = system: COLO 205; assay: Growth inhibition of human COLO205 cells after 48 hrs by SRB protein assay; details: COLO 205, 48 h
# [24] = system: ACHN; assay: Growth inhibition of human ACHN cells after 48 hrs by SRB protein assay
# [25] = system: UO-31; assay: Growth inhibition of human UO31 cells after 48 hrs by SRB protein assay; details: UO-31, 48 h
# [26] = read-out: LC50 (the source's name)
structure (smiles),measurement,setting,value
Clc1nc(Cl)c2ncn(Cc3ccccc3Cn3cnc4c(Cl)nc(Cl)nc43)c2n1,GI50,[1],20.4 µM
same,LC50,[1],91.2 µM
same,TGI,[1],43.6 µM
same,GI50,[2],5.13 µM
same,TGI,[2],21.9 µM
same,CC50,[2],81.3 µM
same,TGI,[3],3.47 µM
same,CC50,[3],7.08 µM
same,GI50,[4],20.9 µM
same,TGI,[4],38 µM
same,CC50,[4],70.8 µM
same,GI50,[5],1.91 µM
same,LC50,[5],9.12 µM
same,TGI,[5],4.17 µM
same,GI50,[6],5.25 µM
same,LC50 (50% lethal concentration),[6],57.5 µM
same,TGI,[6],17.8 µM
same,LC50,[7],21.4 µM
same,TGI,[7],4.9 µM
same,GI50,[8],15.1 µM
same,LC50,[8],57.3 µM
same,TGI,[8],28.2 µM
same,GI50,[9],1.86 µM
same,TGI,[9],3.98 µM
same,CC50,[9],8.32 µM
same,GI50,[10],1.41 µM
same,TGI,[10],3.09 µM
same,CC50,[10],6.61 µM
same,GI50,[11],2.4 µM
same,LC50,[11],17.4 µM
same,TGI,[11],5.5 µM
same,GI50,[12],0.55 µM
same,TGI,[12],2.34 µM
same,GI50,[13],6.31 µM
same,TGI,[13],26.9 µM
same,CC50,[13],> 100 µM
same,GI50,[14],17 µM
same,TGI,[14],33.9 µM
same,CC50,[14],67.6 µM
same,GI50,[15],1.66 µM
same,LC50,[15],5.5 µM
same,TGI,[15],3.02 µM
same,GI50,[16],2.09 µM
same,LC50,[16],8.71 µM
same,TGI,[16],4.23 µM
same,GI50,[17],3.09 µM
same,LC50 (concentration killing 50% of cells),[17],> 100 µM
same,TGI,[17],11.2 µM
same,GI50,[18],11.5 µM
same,TGI,[18],31.6 µM
same,CC50,[18]; [26],87.1 µM
same,GI50,[19],6.76 µM
same,LC50,[19],95.5 µM
same,TGI,[19],26.9 µM
same,growth at 100 µM,[20],0%
same,GI50,[21],3.98 µM
same,LC50,[21],> 100 µM
same,TGI,[21],24.6 µM
same,GI50,[22],3.31 µM
same,TGI,[22],13.8 µM
same,CC50,[22],> 100 µM
same,GI50,[23],3.16 µM
same,LC50,[23],> 100 µM
same,TGI,[23],> 100 µM
same,GI50,[24],1.77 µM
same,LC50,[24],5.75 µM
same,TGI,[24],3.24 µM
same,GI50,[25],1.95 µM
same,LC50,[25],7.41 µM
same,TGI,[25],3.8 µM
Clc1nc(Cl)c2ncn(Cc3cccc(Cn4cnc5c(Cl)nc(Cl)nc54)c3)c2n1,GI50,[1],12.6 µM
same,LC50,[1],97.7 µM
same,TGI,[1],34.7 µM
same,GI50,[2],2.23 µM
same,TGI,[2],5.62 µM
same,CC50,[2],93.3 µM
same,GI50,[3],1.9 µM
same,TGI,[3],3.71 µM
same,CC50,[3],7.24 µM
same,GI50,[4],20.9 µM
same,TGI,[4],38 µM
same,CC50,[4],70.8 µM
same,GI50,[5],6.16 µM
same,LC50,[5],70.8 µM
same,TGI,[5],22.4 µM
same,GI50,[6],7.41 µM
same,LC50 (50% lethal concentration),[6],47.9 µM
same,TGI,[6],20.4 µM
same,GI50,[7],2.39 µM
same,LC50,[7],25.7 µM
same,TGI,[7],7.07 µM
same,GI50,[8],16.6 µM
same,LC50,[8],57.5 µM
same,TGI,[8],30.9 µM
same,GI50,[9],1.82 µM
same,TGI,[9],3.31 µM
same,CC50,[9],6.16 µM
same,GI50,[10],2.23 µM
same,TGI,[10],5.37 µM
same,CC50,[10],> 100 µM
same,GI50,[11],7.24 µM
same,LC50,[11],58.9 µM
same,TGI,[11],22.4 µM
same,GI50,[12],2.57 µM
same,TGI,[12],11.2 µM
same,CC50,[12]; [26],> 100 µM
same,GI50,[13],2.81 µM
same,TGI,[13],7.76 µM
same,CC50,[13],35.5 µM
same,GI50,[14],4.57 µM
same,TGI,[14],17.4 µM
same,CC50,[14],46.8 µM
same,GI50,[15],2.39 µM
same,LC50,[15],28.2 µM
same,TGI,[15],7.24 µM
same,GI50,[16],15.1 µM
same,LC50,[16],55 µM
same,TGI,[16],28.8 µM
same,GI50,[17],2.69 µM
same,LC50 (concentration killing 50% of cells),[17],83.2 µM
same,TGI,[17],7.24 µM
same,GI50,[19],12.9 µM
same,LC50,[19],75.9 µM
same,TGI,[19],31.6 µM
same,growth at 100 µM,[20],0%
same,GI50,[21],4.26 µM
same,LC50,[21],> 100 µM
same,TGI,[21],22.4 µM
same,GI50,[22],5.75 µM
same,TGI,[22],22.4 µM
same,CC50,[22],9.33 µM
same,GI50,[23],3.38 µM
same,LC50,[23],> 100 µM
same,TGI,[23],> 11.2 µM
same,GI50,[24],2.51 µM
same,LC50,[24],21.4 µM
same,TGI,[24],6.16 µM
same,GI50,[25],1.9 µM
same,LC50,[25],6.6 µM
same,TGI,[25],3.54 µM
